Experimental findings from patent US20220339178A1, “COMPOSITIONS AND METHODS FOR COGNITIVE PROTECTION OF POLLINATORS AGAINST PESTICIDES” (priority 2019, published 2022) are described below.

In experiment [1] the test system is bumblebee Bombus impatiens. In words: Olfactory conditioning of PER in bumblebees: rutin vs imidacloprid. The experiment is classed as in vivo. As to the method:
One colony of the bumblebee Bombus impatiens (Koppert Inc) was kept in laboratory conditions. Bees received pollen inside the nests and foraged to a 1M sugar-water feeder outside of the nest. Bees were collected while on the feeder and iced anesthetized to then be yolked restrained in plastic pipettes. Bees were maintained in the pipettes for the entire duration of the experiment (five days).
Control: 1M sugar water (20 μL) fed twice a day for three consecutive days;
Rutin: 1 μM Rutin (Sigma-Aldrich R5143) diluted in 1M sugar water (20 μL) fed twice a day for three days before training on the fourth day;
Imid: fed with 1M sugar water (20 μL) twice a day for three days and fed with 20 μL of 5 nM Imidacloprid (Prime Source LLC, IN, USA) in 1M sugar water 2 hours before training on the fourth day; and
Rutin+Imid: Bees fed with 1 μM Rutin diluted in 1M sugar water (20 μL) for three days before training and receiving 20 μL of 5 nM Imidacloprid in 1M sugar water 2 hours before training on the fourth day.
All bees were trained using olfactory conditioning of the proboscis extension response (PER). Briefly, bees were exposed to a presentation of 1-nonanol (Sigma-Aldrich) for 10 s. After 7 s of the onset of the odor presentation, the antenna was stimulated with 1.5 M sugar-water to elicit the PER. Following the PER, the bee was allowed to drink sugar-water for 3 s. Each paired presentation was considered a training trial and each individual received eleven training trials with an average intertrial interval of 10 minutes. After training, all bees were fed 20 μL of 1M sugar water and maintained in plastic boxes for 24 h until the retention test. […] Twenty-four hours after the last training trial the bees were presented with the conditioned odor for 10 s.
Performance for each individual was quantified as the number of conditioned PER responses across the trials. Thus, for each bee a score between zero and ten (0-10) was recorded.
Multiple comparisons were then run using Wilcoxon-tests between groups using single or two-tailed t-tests depending upon predictions (bees on all treatments were predicted to perform better than bees in the Imidacloprid group). Error due to multiple comparisons was controlled using the False Discovery Rate method (FDR-two stage sharpened method). In all cases corrected p-values are presented.
Acquisition learning (i.e. learning curves) was compared between bees fed with imidacloprid vs. protected bees using Repeated measures.
Retention was quantified as a nominal variable (yes/no). Data were compared across treatments using a Chi-square test, followed by multiple comparisons between pairs of treatments. Error due to multiple comparisons was controlled using the FDR as indicated above. In all cases corrected p-values are presented.
Latency was quantified as a continuous variable between 0.5 s and 10 s. Data were compared across treatments using an ANOVA following a Log transformation to normalize the distribution (Shapiro-Wilk W Test after log transformation: W=0.99, p=0.55), followed by multiple comparisons between groups using two-tailed t-test. Error due to multiple comparisons was controlled using the FDR method as indicated above. In all cases corrected p-values are presented.

Experiment [2] relates to Honey bee foragers (Apis mellifera scutellata). In words: Classical conditioning of PER in honey bees: rutin, kaempferol, p-coumaric acid vs fipronil. The class given is in vivo. As to the method: Honey bee foragers (Apis mellifera scutellata) were captured from established hives at the Apiary of the Universidad del Rosario (Bogota, Colombia) between 08:00 h and 10:00 h. Bees were ice-anesthetized and harnessed in plastic tubes and maintained under laboratory conditions for the duration of the experiment (five days). Food was provided twice a day in a volumen of 10 μL and varied in composition according to experimental treatments.
Bees were randomly allocated to one of the following treatments administered twice a day for three consecutive days (all concentrations are final):
Control: 1M sucrose water (10 μL)
Rut: 1 μM rutin (Sigma-Aldrich: R5143)-1M sugar water (10 μL)
Kaemp:131 μM kaempferol (Sigma-Aldrich:K0133)+1M sugar water (10 μL)
p-Cou A: 200 μM p-coumaric acid (Sigma-Aldrich:C9008) diluted in 1M sugar water (10 μL)
Mix: 1 μM rutin, 131 μM kaempferol and 200 μM p-Coumaric acid): Bees fed with composition diluted in 1M sugar water (10 μL) fed twice a day for three days
On the fourth day, bees were randomly assigned to one of two treatments three hours before training:
Fipronil: 10 μL of 228 nM Fipronil (Astuto Invesa) in 1M sucrose water
Sucrose solution: 10 μL 1M sucrose water
Thus, bees belong to one of ten treatments: Control, Kaemp, Rut, p-Cou A, Mix, Fipro, Kaemp+Fipro, Rut+Fipro, p-Cou A+Fipro, Mix+Fipro.
Bees were trained using classical conditioning of the proboscis extension response (PER). Briefly, bees received a soft current of clean air for 15 seconds to allow bees to accommodate. Then a soft current of 1-hexanol (Sigma-Aldrich: 471402) was injected for 10 seconds. Six seconds after injection of 1-hexanol, one of the antennae was stimulated with sugar water (1.5M), which leads to the reflexive extension of the proboscis, and the bee was allowed to drink for 4 seconds. Thus, the reward and the stimulus overlapped for four seconds. This sequence, recognized as a training trial, was repeated eleven times. Time was determined using a metronome (2 Hz). Memory retention was tested 24 hours after the eleven training trials. […] 12 bees were trained each session. Training was conducted by an experimenter blind to treatment.
Learning for each individual was quantified as the number of conditioned PER responses across the trials. Thus, for each bee a learning score between zero and ten (0-10) was recorded.
Multiple comparisons were then run comparing learning score relative to Control bees using a non-parametric one or two-tailed Steel Method depending upon predictions. These comparisons informed us about the predicted impairment produced by the insecticides, the predicted innocuous effect of the flavonoid and the potential level of protection. Error due to multiple comparisons was controlled using the False Discovery Rate method (FDR-two stage sharpened method). In all cases corrected p-values (q-values) are presented.
Memory retention was quantified as a nominal variable (yes/no). Data were compared across treatments using a Chi-square test, followed by multiple comparisons of all treatments vs. Control. Error due to multiple comparisons was controlled using the FDR as indicated above. In all cases corrected p-values (q values) are presented.
Latency was quantified as a continuous variable between 0.5 s and 10 s. Data were compared across treatments using an ANOVA following a Log transformation to normalize the distribution (Shapiro-Wilk W Test after log transformation: p>0.05 for all treatments for the null hypothesis that data is from a normal distribution), followed by multiple comparisons between all treatments and the Control group (Dunnett's method). Error due to multiple comparisons was controlled using the FDR method as indicated above. In all cases corrected p-values (q-values) are presented.

With `O=[N+]([O-])NC1=NCCN1Cc1ccc(Cl)nc1` [Imidacloprid], in experiment [1] (acquisition curves, repeated measures MANOVA), the “learning across trials relative to Rutin+Imidacloprid bees” value is recorded as “significantly lower”. Also, in experiment [1] (bumblebees), the “latency of response relative to Control bees” value is listed as “significantly longer”, the “latency of response relative to bees fed with Rutin” value was “significantly longer”, the “latency of response relative to bees prophylactically fed with Rutin” value is given as “not different” and the “memory retention after 24 h relative to Control group” value is recorded as “significantly lower”. For the same compound, in experiment [1] (bumblebees), the “memory retention after 24 h relative to Rutin group” value is on record as “significantly lower” and the “memory retention after 24 h relative to Rutin+Imidacloprid group” value is “significantly lower”. Further, the “performance score relative to Control bees” value in experiment [1] (bumblebees, score 0-10, rutin 1 μM twice a day for three days, imidacloprid 5 nM 20 μL 2 hours before training) is listed as “significantly lower”.
For the compound `C[C@@H]1O[C@@H](OC[C@H]2O[C@@H](Oc3c(-c4ccc(O)c(O)c4)oc4cc(O)cc(O)c4c3=O)[C@H](O)[C@@H](O)[C@@H]2O)[C@H](O)[C@H](O)[C@H]1O` [Rutin], the “latency of response relative to Control bees” value in experiment [2] (Dunnett's method) is “not significantly different from Control”. For the same compound, the “learning score relative to Control bees” value in experiment [2] (honey bees, score 0-10, 1 μM rutin, 131 μM kaempferol, 200 μM p-coumaric acid or Mix twice a day for three days, 228 nM fipronil 10 μL three hours before training) is listed as “not significantly different from Control bees”.
